Data from patent US20230284616A1, “FUNGICIDAL COMPOSITIONS” (SYNGENTA CROP PROTECTION AG, priority 2020, published 2023).
Like-named read-outs stand apart in the source and are kept apart here. Numbered stars: 1 amine (or outer) side, 2 acyl side, 3 side chain; on linkers, the order of the positions; unused ones are H or OH. Square brackets hold non-standard residues; d marks the D form. Peptide text beside a SMILES is read from it. ξ: configuration not given here. ξNMeVal(3-OH) = CNC(C(=O)O)C(C)(C)O; NMeF = CN[CH](Cc1ccccc1)C(=O)O; X1 = CCC(C)C(O[*:1])C(=O)[*:2]; NMeV = CN[CH](C(=O)O)C(C)C

Columns and labels:
[1] = tested on: Alternaria solani; experiment: Liquid culture test in well plates, Alternaria solani (early blight of tomato/potato), Example 1-2; type: cell-based
Description: (§1) Mycelia fragments or conidia suspensions of a fungus, prepared either freshly from liquid cultures of the fungus or from cryogenic storage, are directly mixed into nutrient broth. DMSO solutions of the test compound (max. 10 mg/mL) is diluted with 0.025% Tween20 by factor 50 and 10 µL of this solution is pipetted into a microtiter plate (96-well format). […] The test plates are incubated in the dark at 24° C. and 96% relative humidity (rh). The inhibition of fungal growth is determined photometrically and visually after 3 - 7 days, depending on the pathosystem, and percent antifungal activity relative to the untreated check is calculated.
Conidia of the fungus from cryogenic storage were directly mixed into nutrient broth (PDB potato dextrose broth). After placing a DMSO solution of the test compositions into a microtiter plate (96-well format) the nutrient broth containing the fungal spores was added.

[2] = tested on: Botrytis cinerea; experiment: Liquid culture test in well plates, Botrytis cinerea (gray mould), Example 1-1; type: cell-based; details: Cyprodinil 0.005 ppm alone, growth inhibition, photometric, 72 hours, read-out: (B) inhibition (%)
Description: as §1
Conidia of the fungus from cryogenic storage were directly mixed into nutrient broth (PDB potato dextrose broth). After placing a DMSO solution of the test compositions into a microtiter plate (96-well format), the nutrient broth containing the fungal spores was added.

[3] = 48 h, read-out: (A) inhibition (%)

SMILES	inhibition at 0.01 ppm [1, 3]	inhibition at 0.02 ppm [1, 3]	inhibition at 0.04 ppm [1, 3]	inhibition at 0.005 ppm [2]	inhibition at 0.04 ppm ([1]; Cyprodinil 0.04 ppm alone, 48 hours, read-out: (B) inhibition (%))
CCC(C)C1NC(=O)C2CCCN2C(=O)C(Cc2ccccc2)N(C)C(=O)C(Cc2ccccc2)NC(=O)C(C(C)C)N(C)C(=O)C(C(C)CC)OC(=O)C(C(C)(C)O)N(C)C(=O)C(CC(C)C)NC(=O)C(C(C)C)N(C)C1=O (centres unmarked) [Aureobasidin A] (cyclo([ξNMeVal(3-OH)][X1][NMeV]F[NMeF]PI[NMeV]L); configuration not given here)	24%	31%	43%		
Cc1cc(C2CC2)nc(Nc2ccccc2)n1 [Cyprodinil, cyprodinil, reference compound]				34%	35%
